# Assay: The compound was tested for its inhibition against Neuraminidase of the influenza RNA virus
row,Structure (SMILES),Ki
1,C=CC[C@H]1CC(C(=O)O)=C[C@@H](OC(C)C)[C@@H]1NC(C)=O,1100 nM
2,C=C[C@H]1CC(C(=O)O)=C[C@@H](OC(C)C)[C@@H]1NC(C)=O,45 nM
3,CCO[C@@H]1C=C(C(=O)O)C[C@H](N)[C@H]1NC(C)=O,180 nM
4,C=C[C@@H]1CC(C(=O)O)=C[C@@H](OC(C)C)[C@@H]1NC(C)=O,69000 nM
5,C=CC[C@H]1CC(C(=O)O)=C[C@@H](OC(CC)CC)[C@@H]1NC(C)=O,1300 nM
6,C=CC[C@@H]1CC(C(=O)O)=C[C@@H](OC(C)C)[C@@H]1NC(C)=O,14000 nM
7,CC(=O)N[C@@H]1[C@@H](CCO)CC(C(=O)O)=C[C@H]1OC(C)C,4100 nM
